In patent US10604493B2, “Compositions, methods of use, and methods of treatment” (priority 2012, dated 2020):

Tests used:
[1] = molecular target: CTX-M-9 (Escherichia coli, UniProt Q9L5C8); assay: biochemical; settings: for LipE (defined as log Ki-c log P): from Ki against CTX-M-9 and c log P
Excerpt: To investigate the effectiveness of the new analogs, we employed CTX-M-9 and a UV-absorbance based biochemical assay to obtain binding affinities. […] The parameter LipE (defined as log Ki-c log P)^24 provides a measure of binding affinity improvement achieved while retaining favorable physiochemical properties.
The compounds were synthesized as previously described or purchased from the company Chembridge, and assayed without further purification. The highest concentrations at which the compounds were tested were up to 1-3 mM (depending on their solubility) in IC50 experiment. The reaction was initiated by adding protein to the reaction buffer last.

[2] = test system: O=C(Cc1cccs1)N[C@@H]1C(=O)N2C(C(=O)O)=C(/C=C/c3ccc([N+](=O)[O-])cc3[N+](=O)[O-])CS[C@H]12; assay: purified protein, by the assay type; settings: other: substrate, 100 mM Tris-HCl pH 7.0, 0.01% Triton X-100

Compound | Ki [1] [µM] | LipE (defined as log Ki-c log P) [1] | also measured
O=C(Nc1cccc(-c2nnn[nH]2)c1)c1cc(F)cc2nc[nH]c12 [Compound 23, 6-Fluoro-3H-benzoimidazole-4-carboxylic acid [3-(1H-tetrazol-5-yl)-phenyl]-amide] | – | – | potency (Ki) relative to comparator compound, in words ([1]; CTX-M-9): only equipotent to des-fluoro comparator 16
O=C(Nc1cccc(-c2nnn[nH]2)c1)c1cc(C(F)(F)F)cc2nc[nH]c12 [Compound 19, 6-Trifluoromethyl-3H-benzoimidazole-4-carboxylic acid [3-(1H-tetrazol-5-yl)-phenyl]-amide] | 0.089 | 3.86 | ligand efficiency (L.E.) ([1]; from Ki against CTX-M-9): 0.36
CTX-M-9 (Escherichia coli) | – | – | Km [2]: 24 µM
O=C(Nc1cccc(-c2nnn[nH]2)c1)c1cccc(F)c1 [Compound 1] | – | 1.37 | –
CC(=O)c1cccc(C(=O)Nc2cccc(-c3nnn[nH]3)c2)c1 [Compound 7, 3-Acetyl-N-[3-(1H-tetrazol-5-yl)-phenyl]-benzamide] | – | 2.51 | –
N#Cc1cccc(C(=O)Nc2cccc(-c3nnn[nH]3)c2)c1 [Compound 14, 3-Cyano-N-[3-(1H-tetrazol-5-yl)-phenyl]-benzamide] | 7.2 | – | –
